US6878546B2, “Product and method for swelling a cell nucleus without DNA replication” (Brandeis University, priority 1993, dated 2005)
Like-named read-outs stand apart in the source and are kept apart here.

Assays:
[1] = tested on: Xenopus erythrocyte nuclei; test: Induction optimization: P^32-dCTP incorporation into DNA of pretreated nuclei in activating egg extract, cycloheximide added at different times; assay type: biochemical; conditions: total 60 minutes at 25° C.
Description: Induction optimization was carried for Xenopus as describe below (see also Example 2, infra, for further optimization experiments). Xenopus erythrocyte nuclei were isolated and pretreated with lysolecithin and trypsin as described in Example 2 (described below). An activating egg extract was prepared from hardened eggs which were induced for 10 minutes as described above. Both the activating egg extract and the pretreated nuclei were kept on ice (about 4° C.). The activating egg extract was supplemented with 1 mM ATP (not used in the other examples described herein), 10 μg/ml creatine phosphokinase, 10 mM creatine phosphate, 10 μCi P^32-dCTP and combined with pretreated nuclei (about 200 nuclei/μl). Individual aliquots containing activated nuclei were shifted from 4° C. to 25° C. […] After 60 minutes, P^32-dCTP incorporation into newly synthesized DNA was determined.

erythrocyte nuclei = test: Supplements to CSF extract: chromatin assembly and later DNA synthesis in activating egg extract; assay type: biochemical, Xenopus
Source text: After further pretreatment in CSF extract, the nuclei may be activated by adding 9 volumes of “prepared activating egg extract.” DNA replication, measured by incorporation of labelled nucleotides into DNA strands, may be used to determine the extent to which prior treatment in CSF extract enhances nuclear activation in activating extract. Labelled nucleotides useful in measuring nuclear DNA replication include microcurie amounts of P^32-dCTP for radioactive measurement of newly synthesized DNA, 16-50 μM biotinylated-dUTP or BrdUTP for fluorescent measurement of newly synthesized DNA, and 250 μM BrdUTP for density labelling of newly synthesized DNA.
Several supplements to CSF extract, in the proper concentration, increased the ability of CSF extract to enhance activation activity without resulting in premature DNA synthesis activity. Useful supplements include β-glycerol-PO4, Ca^2+, and protein kinase inhibitors. The addition of β-glycerol-PO4 increased the rate at which negatively supercoiled DNA relaxed in CSF extract and was subsequently assembled into chromatin. […] Beta-glycerol-PO4 is an inhibitor of phosphatase activity and may act by increasing the level of the phosphorylated functionally-active form of topoisomerase II in the CSF extract. […]

[2] = tested on: Xenopus red blood cells nuclei; conditions: for Cpm Incorporated After X Minutes: 23° C.
Description: The affect of cAMP on DNA replication in activated Xenopus red blood cells was determined.
Cyclic-AMP was then added to separate aliquots to yield final concentrations of 0.0 μM, 0.1 μM, 1.0 μM, or 10 μM.
Each aliquot was warmed to 23° C. and sampled over time to determine P^32-dCTP incorporation into replicated DNA. At each time point, a 7 μl aliquot was taken, frozen on dry ice, and later thawed and digested by the addition of 10 μl replication sample buffer (80 mM Tris (pH 8.0), 8 mM EGTA, 0.13% phosphoric acid, 10% Ficoll, 5% SDS, 0.2% bromphenol blue) containing proteinase K (1.0 mg/ml) for 2 hours at room temperature. Incorporated radioactivity was analyzed by electrophoresis on a 0.8% agarose gel (50V, 20 hours) followed by vacuum drying the gel and counting on a Betascope.

[3] = tested on: Xenopus erythrocyte nuclei; test: DNA replication in activating egg extract after further pretreatment in CSF extract supplemented with DMAP; assay type: biochemical; conditions: 5 mM DMAP in CSF extract; FIG. 2
Description: Addition of 6-dimethylaminopurine (DMAP) to CSF extracts was used to further pretreat Xenopus erythrocyte nuclei and stimulate subsequent DNA replication in activating egg extract. DMAP can be used to inhibit nucleic acid synthesis and protein kinase activity. Xenopus erythrocyte nuclei were isolated and pretreated as described in Example 1 above, and incubated in thawed “prepared CSF extract” supplemented with 80 mM β-glycerol-PO4, and 5 μg/ml nocodazole at a concentration of 2000 nuclei/μl. Further pretreatment was carried out by incubation for 30 minutes at 4° C., then 30 minutes at 25° C., then 60 minutes at 4° C. Half the samples were supplemented with 5 mM DMAP before addition of the nuclei. After the two hours of incubation, each sample was diluted with 9 volumes of activating egg extract, supplemented with 5 μg/ml nocodazole (this dose of nocodazole slows down the rate of replication) and approximately 160 μCi/ml P^32-dCTP. Aliquots were removed over time to measure DNA replication.

[4] = tested on: human fetal liver erythroid cell nuclei; test: Activation of human fetal liver erythroid cell nuclei in activating extract (swelling, replication, chromosome formation); assay type: biochemical; conditions: aphidicolin added at T=0
Description: Step 5: Activation of erythroid cell nuclei. Nuclear swelling, envelope formation, and replication were carried out on human fetal liver erythroid cell nuclei prepared using the optimal conditions described in steps 1-4 above. […] The resulting nuclei concentration was about 200/μl.
The following measurement were taken: DNA synthesis was monitored using extract containing P^32dCTP by gel electrophoresis; histone H1 kinase was measured; and samples, labelled with biotinylated-dUTP were taken for cytological analysis of DNA replication and nuclear envelope breakdown.
Experiments were also carried out to determine whether nuclear swelling was dependent on DNA synthesis, by activating nucleic in the presence of aphidicolin (added at T=0).
Swelled and replicated nuclei were treated with Cyclin-Δ90 or CSF extract. Cyclin-Δ90 was added to activating extract to obtain prophase mitotic chromosomes, while CSF extract was added to obtain metaphase chromosomes and nuclear envelope breakdown.

[5] = tested on: Xenopus red blood cells nuclei; test: DNA replication in activated nuclei in caffeine supplemented activating egg extract; assay type: biochemical; conditions: caffeine at 1.0 mM in the presence of 0.3 μM cAMP; compared with 0.2 mM and 5.0 mM; FIG. 1
Description: The experimental conditions used were as described in Example 1 with the following changes: the concentration of cAMP was set at 0.3 μM and caffeine was added to the activating egg extract to a concentration of either 0.2 mM, 1.0 mM, or 5.0 mM.

[6] = Rate of DNA replication in activating egg extract with nocodazole; assay type: biochemical; conditions: 5 μg/ml nocodazole added to activating egg extract

## C[C@@H]1C[C@@H]([C@H](O)CC2CC(=O)NC(=O)C2)C(=O)[C@@H](C)C1 [CHM, Cycloheximide]
[1]; CHM 100 μg/ml added at 0 minutes, extract from eggs induced 10 minutes
  Cpm Incorporated into DNA: 2,894 Cpm
[1]; CHM 100 μg/ml added at 5 minutes
  Cpm Incorporated into DNA: 4,208 Cpm
[1]; CHM 100 μg/ml added at 15 minutes
  Cpm Incorporated into DNA: 4,937 Cpm
[1]; CHM 100 μg/ml added at 30 minutes
  Cpm Incorporated into DNA: 3,775 Cpm
[1]; CHM 100 μg/ml added at 45 minutes
  Cpm Incorporated into DNA: 2,314 Cpm

## [Ca+2].[Cl-].[Cl-] [Ca^2+, CaCl2]
Erythrocyte nuclei; 100 μM Ca^2+ added to CSF extract
  amount and rate of DNA synthesis in erythrocyte nuclei after addition of activating egg extract: increased both the amount and the rate of DNA synthesis

## Nc1ncnc2c1ncn2[C@@H]1O[C@@H]2COP(=O)(O)O[C@H]2[C@H]1O [Cyclic AMP, Cyclic-AMP]
[2]; 0.1 μM cAMP
  DNA replication in activated nuclei compared to without any cAMP: increased
[2]; 1.0 μM cAMP, compared with 0.1 μM
  DNA replication in activated nuclei compared to without any cAMP: greater increase
[2]; 10 μM cAMP
  DNA replication in activated nuclei compared to without any cAMP: inhibits DNA replication
[2]; 0.1 Micromoles of Cyclic AMP Added, after 0 minutes
  Cpm Incorporated After X Minutes: 14 Cpm
[2]; 0.1 Micromoles of Cyclic AMP Added, after 45 minutes
  Cpm Incorporated After X Minutes: 51 Cpm
[2]; 0.1 Micromoles of Cyclic AMP Added, after 90 minutes
  Cpm Incorporated After X Minutes: 68 Cpm
[2]; 0.1 Micromoles of Cyclic AMP Added, after 135 minutes
  Cpm Incorporated After X Minutes: 290 Cpm
[2]; 0.1 Micromoles of Cyclic AMP Added, after 180 minutes
  Cpm Incorporated After X Minutes: 1,141 Cpm
[2]; 0.1 Micromoles of Cyclic AMP Added, after 240 minutes
  Cpm Incorporated After X Minutes: 2,945 Cpm
[2]; 0.1 Micromoles of Cyclic AMP Added, after 300 minutes
  Cpm Incorporated After X Minutes: 2,692 Cpm
[2]; 1.0 Micromoles of Cyclic AMP Added, after 0 minutes
  Cpm Incorporated After X Minutes: 10 Cpm
[2]; 1.0 Micromoles of Cyclic AMP Added, after 45 minutes
  Cpm Incorporated After X Minutes: 14 Cpm
[2]; 1.0 Micromoles of Cyclic AMP Added, after 90 minutes
  Cpm Incorporated After X Minutes: 56 Cpm
[2]; 1.0 Micromoles of Cyclic AMP Added, after 135 minutes
  Cpm Incorporated After X Minutes: 564 Cpm
[2]; 1.0 Micromoles of Cyclic AMP Added, after 180 minutes
  Cpm Incorporated After X Minutes: 2,316 Cpm
[2]; 1.0 Micromoles of Cyclic AMP Added, after 240 minutes
  Cpm Incorporated After X Minutes: 4,484 Cpm
[2]; 1.0 Micromoles of Cyclic AMP Added, after 300 minutes
  Cpm Incorporated After X Minutes: 5,504 Cpm
[2]; 10 Micromoles of Cyclic AMP Added, after 0 minutes
  Cpm Incorporated After X Minutes: 43 Cpm
[2]; 10 Micromoles of Cyclic AMP Added, after 45 minutes
  Cpm Incorporated After X Minutes: 34 Cpm
[2]; 10 Micromoles of Cyclic AMP Added, after 90 minutes
  Cpm Incorporated After X Minutes: 31 Cpm
[2]; 10 Micromoles of Cyclic AMP Added, after 135 minutes
  Cpm Incorporated After X Minutes: 35 Cpm
[2]; 10 Micromoles of Cyclic AMP Added, after 180 minutes
  Cpm Incorporated After X Minutes: 85 Cpm
[2]; 10 Micromoles of Cyclic AMP Added, after 240 minutes
  Cpm Incorporated After X Minutes: 168 Cpm
[2]; 10 Micromoles of Cyclic AMP Added, after 300 minutes
  Cpm Incorporated After X Minutes: 571 Cpm

## CN(C)c1ncnc2nc[nH]c12 [DMAP, 6-dimethylaminopurine]
[3]
  initial rate and total amount of DNA synthesis: increased
  lag time before the onset of replication: decreased

## C[C@@]1(CO)[C@H](O)CC[C@@]2(C)[C@H]1CC[C@H]1C[C@@H]3C[C@@]12CC[C@]3(O)CO [aphidicolin]
[4]
  replication (biotin labelling): no replication took place
[4]; absence of replication
  nuclear swelling: many nuclei swelled significantly

## Cn1c(=O)c2c(ncn2C)n(C)c1=O [caffeine]
[5]
  initial rate and extent of DNA replication in activated nuclei: highest initial rate and extent of DNA replication

## COC(=O)Nc1nc2ccc(C(=O)c3cccs3)cc2[nH]1 [nocodazole]
[6]
  rate of DNA replication: decreases

## O=P(O)(O)OC(CO)CO [β-glycerol-PO4]
Erythrocyte nuclei; about 80 mM β-glycerol-PO4
  chromatin assembly in CSF extract: aid in chromatin assembly without causing DNA synthesis
